PMC6152089, “Steroid Alkaloids from Holarrhena africana with Strong Activity against Trypanosoma brucei rhodesiense” (Molecules : A Journal of Synthetic Chemistry and Natural …, 2017)
“And” between values parts separate entries of the source, which are not always exact repeats. Equal entries are not always repeated. Where two headings read alike, the source gives them in different places.

Columns and labels:
[1] = Cytotoxicity against L6 cells; assay type: cell-based, rat; conditions: rat
Experimental: (§1) In vitro tests for biological activity of the crude extracts, fractions, sub-fractions and isolated compounds against Trypanosoma brucei rhodesiense (bloodstream trypomastigotes, STIB 900 strain), Trypanosoma cruzi (amastigotes, Tulahuen C4 strain), Leishmania donovani (amastigotes, MHOM-ET-67/L82 strain), Plasmodium falciparum (intraerythrocytic form, NF54 strain) and cytotoxicity test against mammalian L6 cell line from rat skeletal myoblasts were performed according to the established standard protocol. However, only the activity data against Trypanosoma brucei rhodesiense is reported due to the inactivity of the tested substances against other parasites at the concentration tested.

[2] = test system: Trypanosoma brucei rhodesiense (bloodstream trypomastigotes, STIB 900 strain); assay: In vitro anti-trypanosomal activity against Tbr; assay type: cell-based
Experimental: as §1

[3] = test system: L6 rat skeletal myoblasts; assay: Cytotoxicity against L6 cells; assay type: cell-based
Experimental: as §1

[4] = isolated compounds, average of two determinations (a: one replicate), read-out: Cytotoxicity L6 Cells IC50
[5] = isolated compounds, average of two determinations (a: one replicate), read-out: Cytotoxicity L6 Cells IC50 (µg/mL)
[6] = Trypanosoma brucei, isolated compounds, average of two determinations ± absolute deviation, read-out: Tbr (STIB900) IC50
[7] = Trypanosoma brucei, isolated compounds, average of two determinations ± absolute deviation, read-out: Tbr (STIB900) IC50 (µg/mL)
[8] = isolated compounds, average of two determinations ± absolute deviation, read-out: Tbr (STIB900) IC50

Compound	IC50 [2, 6]	IC50 [2, 7]	IC50 [1]	IC50 [2, 8]	further results
C[C@H]1[C@H]2CC[C@H]3[C@@H]4C(=O)C=C5C=CCC[C@]5(C)[C@H]4CC[C@]23CN1C [Compound 10, cona-3,5-dienin-7-one]	7370 ± 940 nM	2.4 ± 0.3 µg/mL	–	–	IC50 [1, 4]: 41700 ± 18900 nM; IC50 [1, 5]: 13.6 ± 6.2 µg/mL
Nc1nc(N)nc(Nc2ccc([As]3SCC(CO)S3)cc2)n1 (stereo not shown) [melarsoprol, reference compound]	–	–	–	–	IC50 ([2]; Trypanosoma brucei, read-out: Tbr IC50): 0.002 ± 0.001 µg/mL
C[C@@H]1N=C[C@]23C[C@H](O)[C@H]4[C@@H](CCC5=CC(=O)C=C[C@@]54C)[C@@H]2CC[C@H]13 [Compound 8, holonamine]	8670 ± 2330 nM	2.82 ± 0.76 µg/mL	21.1 µg/mL and 64.9 µM	–	–
N^3-isopentenyl adenine [Compound 19]	–	–	–	–	Cytotoxicity L6 Cells IC50 [3]: 61.30 ± 4.24 µg/mL; IC50 [3]: 302000 ± 6800 nM; Tbr (STIB900) IC50 ([2]; isolated compounds, average of two determinations ± absolute deviation): 5.03 ± 0.54 µg/mL
CC(=O)[C@H]1CC[C@H]2[C@@H]3CC=C4C[C@@H](N)CC[C@]4(C)[C@H]3CC[C@]12C [Compound 1, 3β-holaphyllamine]	–	0.127 ± 0.088 µg/mL	1.61 µg/mL and 5.1 µM	400 ± 280 nM	–
C[C@@H]1NC[C@]23CC[C@H]4[C@@H](CC=C5C[C@@H](N(C)C)CC[C@@]54C)[C@@H]2CC[C@H]13 [Compound 11, conessimine]	170 ± 80 nM	0.057 ± 0.028 µg/mL	17.3 µg/mL and 50.4 µM	167 ± 83 nM	–
CN[C@H]1CC[C@@]2(C)C(=CC[C@H]3[C@@H]4CC[C@H](C(C)=O)[C@@]4(C)CC[C@@H]32)C1 [Compound 3, 3β-N-methylholaphyllamine]	80 ± 10 nM	0.025 ± 0.001 µg/mL	0.829 µg/mL and 2.48 µM	75 ± 4 nM	–
CC(=O)N[C@H]1CC[C@@]2(C)C(=CC[C@H]3[C@@H]4CC[C@H](C(C)=O)[C@@]4(C)CC[C@@H]32)C1 [Compound 2, holaphyllamine acetamide]	4800 to 14900 nM	1.73 ± 0.47 µg/mL	5.49 µg/mL and 15.4 µM	4830 ± 1330 nM	–
CC(C)=CCC(=O)O[C@@H]1C[C@H]2[C@@H](CC=C3C[C@@H](N(C)C)CC[C@@]32C)[C@@H]2CC[C@@H]3[C@H](C)N(C)C[C@]312 [Compound 15, holarrhetine]	1660 ± 390 nM	0.777 ± 0.182 µg/mL	45.8 µg/mL and 97.7 µM	–	–
CC(=O)[C@H]1CC[C@H]2[C@@H]3CC=C4C[C@H](N)CC[C@]4(C)[C@H]3CC[C@]12C [Compound 4, 3α-holaphyllamine]	370 ± 159 nM	0.117 ± 0.05 µg/mL	5 µg/mL and 15.9 µM	–	–
CC(=O)[C@H]1CC[C@H]2[C@@H]3CC[C@H]4C[C@@H](N)CC[C@]4(C)[C@H]3CC[C@]12C [Compound 5, 3β-dihydroholaphyllamine]	670 ± 30 nM	0.213 ± 0.008 µg/mL	–	672 ± 27 nM	IC50 [1, 4]: 17400 ± 1360 nM; IC50 [1, 5]: 5.51 ± 0.43 µg/mL
C[C@H]1[C@H]2CC[C@H]3[C@@H]4CC=C5C[C@@H](N(C)C)CC[C@]5(C)[C@H]4CC[C@]23CN1C [Compound 13, conessine]	420 ± 90 nM	0.149 ± 0.031 µg/mL	–	419 ± 87 nM	IC50 ([1]; L6 rat skeletal myoblast cells, isolated compounds, average of two determinations (a: one replicate), read-out: Cytotoxicity L6 Cells IC50): 61200 nM; IC50 ([1]; L6 rat skeletal myoblast cells, isolated compounds, average of two determinations (a: one replicate), read-out: Cytotoxicity L6 Cells IC50 (µg/mL)): 21.8 µg/mL
COc1cc([C@@H]2c3cc4c(cc3[C@H](O)[C@H]3COC(=O)[C@H]23)OCO4)cc(OC)c1OC [podophyllotoxin, reference compound]	–	–	–	–	IC50 ([1]; Table 1, Leaves, L6 cells (c: one replicate), read-out: Cytotox. L6 IC50): 0.004 ± 0.001 µg/mL
CN[C@H]1CC[C@@]2(C)C(=CC[C@H]3[C@@H]4CC[C@@H]5[C@H](C)N(C)C[C@@]54[C@H](O)C[C@@H]32)C1 [Compound 16, holarrheline]	8210 ± 1030 nM	2.94 ± 0.37 µg/mL	64.8 µg/mL and 181 µM	–	–
C[C@]12C=CC(=O)C=C1CC[C@@H]1[C@@H]2[C@@H](O)C[C@]2(C)C(=O)CC[C@@H]12 [Compound 18, kurchinin]	–	3.64 ± 0.21 µg/mL	–	–	–
C[C@H]1[C@H]2CC[C@H]3[C@@H]4CCC5=CC(=O)C=C[C@]5(C)[C@H]4CC[C@]23CN1C [Compound 7, holadienine]	14900 ± 2100 nM	4.81 ± 0.68 µg/mL	–	–	–
C[C@H]1[C@H]2CC[C@H]3[C@@H]4C=CC5=CC(=O)CC[C@]5(C)[C@H]4CC[C@]23CN1C [Compound 9, cona-4,6-dienin-3-one]	17500 ± 200 nM	5.69 ± 0.07 µg/mL	41.9 µg/mL and 129 µM	–	–
C[C@H]1[C@H]2CC[C@H]3[C@@H]4CC=C5C[C@@H](N(C)C)CC[C@]5(C)[C@H]4C[C@@H](O)[C@]23CN1C [Compound 17, holarrhenine]	20900 ± 6000 nM	7.78 ± 2.23 µg/mL	46.4 µg/mL and 125 µM	–	–
CN[C@H]1CC[C@@]2(C)C(=CC[C@H]3[C@@H]4CC[C@@H]5[C@H](C)N(C)C[C@@]54[C@H](OC(=O)CC=C(C)C)C[C@@H]32)C1 [Compound 14, holarrhesine]	120 ± 80 nM	0.054 ± 0.038 µg/mL	6.51 µg/mL and 14.3 µM	119 ± 84 nM	–
CN[C@H]1CC[C@@]2(C)C(=CC[C@H]3[C@@H]4CC[C@@H]5[C@H](C)N(C)C[C@@]54CC[C@@H]32)C1 [Compound 12, isoconessimine]	170 ± 110 nM	0.056 ± 0.038 µg/mL	9.38 µg/mL and 27.4 µM	166 ± 112 nM	–
CC(=O)[C@H]1CC[C@H]2[C@@H]3CC[C@H]4C[C@H](N)CC[C@]4(C)[C@H]3CC[C@]12C [Compound 6, 3α-dihydroholaphyllamine]	1210 ± 750 nM	0.382 ± 0.238 µg/mL	–	–	IC50 [1, 4]: 17000 ± 1200 nM; IC50 [1, 5]: 5.38 ± 0.39 µg/mL
